Laboratory results reported in patent US11753408B2, “Compounds and method for blocking transmission of malarial parasite” (The United States of America, as represented by the …, priority 2016, dated 2023).

Assays:
[1] = molecular target: mTOR (Homo sapiens, UniProt P42345); assay: mTOR activity (no method described); type: biochemical
[2] = tested on: Asexual parasites of P. falciparum strain 3D7; assay: In vitro drug activity on asexual parasites (SYBR Green assay); type: cell-based, Plasmodium falciparum
Method in brief: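 3D7 parasites at 0.5% parasitemia and 2% hematocrit were exposed to drugs (DMSO ≤0.5%) for 72 h under standard culture conditions, in duplicate. After freeze-thaw lysis, SYBR Green I lysis buffer was added for 30 min at room temperature, and fluorescence was read at 490/520 nm.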

[3] = PAMPA permeability; type: in vitro ADME
[4] = Solubility at pH 7.4; type: physicochemical
[5] = Microsomal stability (rat); type: in vitro ADME; conditions: rat microsomes
[6] = tested on: Stage III-V gametocytes (blood stage P. falciparum parasites); assay: In vitro drug activity on gametocytes (AlamarBlue viability assay); type: cell-based, Plasmodium falciparum; conditions: read-out: Gametocyte EC50
Method in brief: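 P. falciparum 3D7 stage III–V gametocytes (also HB3, Dd2), enriched by 50 mM N-acetylglucosamine and Percoll gradient, seeded at 20,000/well with compound for 72 h at 37° C, 5% CO2. AlamarBlue then added for 24 h; viability read as fluorescence (Ex 525, Em 598 nm).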

SMILES | mTOR [1] | EC50 [2] | PAMPA Permeability [3] | Sol @ pH 7.4 [4] | Microsomal Stability (rat) T1/2 [5] | EC50 [6]
Cn1c(=O)n(-c2cccc(C#N)c2)c2c3cc(-c4ccc(N)cc4)ccc3ncc21 [Compound 439] | 714.1 nM | 37.9 nM | 18.4 ×10⁻⁶ cm/s | 1.4 ug/mL | >30.0 min | 844 nM
NCCc1ccc(-c2ccc3ncc4ccc(=O)n(-c5ccc(C(=O)N6CCOCC6)cc5)c4c3c2)cc1 [Compound 183] | 794.5 nM | 49.8 nM | < 1 ×10⁻⁶ cm/s | 28.4 ug/mL | >30 min | 131 nM
O=C(NC1CCC1)c1ccc(-n2c(=O)ccc3cnc4ccc(-c5ccc(Cl)cc5)cc4c32)cc1 [Compound 154] | 765.7 nM | 160 nM | < 1 ×10⁻⁶ cm/s | <1.0 ug/mL | 8 min | 102 nM
O=C(c1ccc(-n2c(=O)ccc3cnc4ccc(-c5ccc(Cl)cc5)cc4c32)cc1)N(CCO)CCO [Compound 105] | 779.9 nM | 47.9 nM | 285 ×10⁻⁶ cm/s | 14.8 ug/mL | 5.9 min | 94.3 nM
CN(C)C(=O)c1cc(-c2ccc3ncc4ccc(=O)n(-c5ccc(C(=O)N6CCOCC6)cc5)c4c3c2)ccc1Cl [Compound 146] | 5732 nM | 536 nM | 98.3 ×10⁻⁶ cm/s | 63 ug/mL | 9.6 min | 1810 nM
O=C(NC1CCCC1)c1ccc(-n2c(=O)ccc3cnc4ccc(-c5ccc(Cl)cc5)cc4c32)cc1 [Compound 156] | 67630 nM | 687 nM | < 1 ×10⁻⁶ cm/s | <1.0 ug/mL | 5.6 min | 1580 nM
Cn1c(=O)n(-c2cccc(C#N)c2)c2c3cc(-c4ccc(Cl)c(O)c4)ccc3ncc21 [Compound 441] | 516.2 nM | 319 nM | < 1 ×10⁻⁶ cm/s | <1.0 ug/mL | >30.0 min | 686 nM
CNC(=O)c1ccc(-n2c(=O)ccc3cnc4ccc(-c5ccc(Cl)cc5)cc4c32)cc1Cl [Compound 115] | 229.4 nM | 8.14 nM | < 1 ×10⁻⁶ cm/s | <1.0 ug/mL | 9 min | 6.21 nM
CN(C)C(=O)c1cccc(-n2c(=O)ccc3cnc4ccc(-c5ccc(N)nc5)cc4c32)c1 [Compound 332] | 494.9 nM | 859 nM | 31.9 ×10⁻⁶ cm/s | >64.0 ug/mL | >30.0 min | 1520 nM
CN1CC2CN(C(=O)c3ccc(-n4c(=O)ccc5cnc6ccc(-c7ccc(Cl)cc7)cc6c54)cc3)CC2C1 (stereo not drawn) [Compound 141] | 8043 nM | 47.5 nM | 1500 ×10⁻⁶ cm/s | 66.5 ug/mL | 4.2 min | 260 nM
CCN(CC)C(=O)c1ccc(-n2c(=O)ccc3cnc4ccc(-c5ccc(Cl)cc5)cc4c32)cc1 [Compound 132] | 736.2 nM | 63.1 nM | 2320 ×10⁻⁶ cm/s | <1.0 ug/mL | <1.0 min | 344 nM
O=C(NC1CCCCC1)c1ccc(-n2c(=O)ccc3cnc4ccc(-c5ccc(Cl)cc5)cc4c32)cc1 [Compound 155] | 27970 nM | 1240 nM | < 1 ×10⁻⁶ cm/s | <1.0 ug/mL | 10.7 min | 3110 nM
O=C(c1ccc(-n2c(=O)ccc3cnc4ccc(-c5ccc(Cl)cc5)cc4c32)cc1)N1CCCCC1 [Compound 104] | 2680 nM | 215 nM | 389 ×10⁻⁶ cm/s | <1.0 ug/mL | 1.4 min | 194 nM
Cc1cc(=O)n(-c2ccc(C(=O)NC3CC3)cc2)c2c1cnc1ccc(-c3ccc(Cl)cc3)cc12 [Compound 179] | 100000 nM | 451 nM | < 1 ×10⁻⁶ cm/s | <1 ug/mL | 19.4 min | 1700 nM
O=C(O)c1cccc(-c2ccc3ncc4ccc(=O)n(-c5ccc(C(=O)N6CCOCC6)cc5)c4c3c2)c1 [Compound 131] | 1557 nM | 17500 nM | 1.9 ×10⁻⁶ cm/s | >75.0 ug/mL | >30.0 min | 17400 nM
O=C(c1ccc(-n2c(=O)ccc3cnc4ccc(-c5ccc(Cl)cc5)cc4c32)cc1Cl)N1CCOCC1 [Compound 116] | 454.6 nM | 22 nM | 383 ×10⁻⁶ cm/s | <1.0 ug/mL | <1.0 min | 65 nM
O=Cc1ccc(-c2ccc3ncc4ccc(=O)n(-c5ccc(C(=O)N6CCOCC6)cc5)c4c3c2)cn1 [Compound 171] | 154.3 nM | 47.5 nM | 31.3 ×10⁻⁶ cm/s | >72.0 ug/mL | 2.8 min | 240 nM
CN(C)Cc1ccc(-c2ccc3ncc4ccc(=O)n(-c5ccc(C(=O)N6CCN(CCO)CC6)cc5)c4c3c2)cc1 [Compound 162] | 32080 nM | 368 nM | < 1 ×10⁻⁶ cm/s | >83.0 ug/mL | >30.0 min | 895 nM
CNC(=O)c1ccc(-n2c(=O)ccc3cnc4ccc(-c5ccc(N)nc5)cc4c32)cc1 [Compound 335] | 28.21 nM | 14.4 nM | < 2.2 ×10⁻⁶ cm/s | 2.8 ug/mL | >30.0 min | 17.7 nM
Cc1ccc(-c2ccc3ncc4c(c3c2)n(-c2cccc(C#N)c2)c(=O)n4C)cc1 [Compound 438] | 100000 nM | 174 nM | < 1 ×10⁻⁶ cm/s | <1.0 ug/mL | 27.2 min | 169 nM
NCc1cccc(-c2ccc3ncc4ccc(=O)n(-c5ccc(C(=O)N6CCOCC6)cc5)c4c3c2)c1 [Compound 180] | 2454 nM | 931 nM | 3.8 ×10⁻⁶ cm/s | 43.7 ug/mL | >30 min | 1820 nM
CN(C)C(=O)c1ccc(-n2c(=O)ccc3cnc4ccc(-c5ccc(Cl)cc5)cc4c32)cc1 [Compound 100] | 1531 nM | 14.8 nM | 315 ×10⁻⁶ cm/s | <1.0 ug/mL | 3.8 min | 45.5 nM
O=C(c1ccc(-n2c(=O)ccc3cnc4ccc(-c5ccc(Cl)cc5)cc4c32)cc1)N1CCC1 [Compound 108] | 1165 nM | 61.4 nM | 119 ×10⁻⁶ cm/s | <1.0 ug/mL | <1.0 min | 59.1 nM
O=C(c1ccc(-n2c(=O)ccc3cnc4ccc(-c5ccc(Cl)cc5)cc4c32)cc1)N1CCCC1 [Compound 106] | 1735 nM | 64 nM | 621 ×10⁻⁶ cm/s | <1.0 ug/mL | 2.1 min | 126 nM
